Measurements taken from patent US7442802B2, “Cyclooxygenase-2 selective inhibitors, compositions and methods of use” (NitroMed, Inc., priority 2002, dated 2008).

Key:
COX-2 = biological target: T1, COX-2 (Homo sapiens, UniProt P35354); assay: Human COX-2 enzyme activity in human whole blood (LPS-induced, thromboxane B2 EIA); assay type: cell-based; settings: human whole blood, LPS induction; for inhibition at 1 µM: read-out: COX-2 Inhibition (% at 1 μM); for inhibition at 10 µM: read-out: COX-2 Inhibition (% at 10 μM)
T1 construct: To induce COX-2, lipopolysaccharide (LPS) from E. coli; endogenous in cells; host or cells: heparinised human whole blood from donors, with COX-2 induced by E. coli LPS
T1 sequence (P35354 18-604): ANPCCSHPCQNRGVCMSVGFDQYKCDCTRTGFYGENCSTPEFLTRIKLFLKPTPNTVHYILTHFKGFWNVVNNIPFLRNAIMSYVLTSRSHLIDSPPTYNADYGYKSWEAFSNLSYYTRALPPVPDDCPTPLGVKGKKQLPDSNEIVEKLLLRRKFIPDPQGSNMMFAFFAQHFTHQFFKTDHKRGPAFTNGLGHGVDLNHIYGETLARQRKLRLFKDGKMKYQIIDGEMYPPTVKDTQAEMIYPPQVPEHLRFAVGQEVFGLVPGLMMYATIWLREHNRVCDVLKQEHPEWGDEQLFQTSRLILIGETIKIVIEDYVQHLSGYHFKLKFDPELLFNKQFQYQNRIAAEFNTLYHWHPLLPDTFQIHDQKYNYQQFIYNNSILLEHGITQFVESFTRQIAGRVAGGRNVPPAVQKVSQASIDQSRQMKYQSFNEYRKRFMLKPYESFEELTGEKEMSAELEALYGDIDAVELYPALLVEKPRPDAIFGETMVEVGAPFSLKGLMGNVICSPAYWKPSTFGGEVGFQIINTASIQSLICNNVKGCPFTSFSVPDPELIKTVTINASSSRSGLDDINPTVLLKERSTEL
Description: (§1) The blood was transported to the laboratory on ice packs and used within 1.5 hours of collection. Upon receipt in the laboratory, the blood was allowed to come to room temperature for 15 minutes prior to distribution in 1 mL aliquots per well of 24 well tissue culture plates. […] Test compounds were dissolved in DMSO, at 1000 fold the final desired concentration, and further diluted, as indicated, in DMSO. One μL of each dilution of the test compound was added per well, in duplicate wells; wells not receiving test compound (e.g., basal, background or control wells) received 1 μL DMSO. […] Louis, Mo., Catalogue No. […] Louis, Mo., Catalogue No. […] (Again, basal, background or control wells not stimulated with A23187 received 1 μL of DMSO.) At 5 hours after the addition of the test compound, all incubations were terminated by placement on ice and the addition of 2 mM EGTA (100 μL of 20 mM EGTA, tetrasodium, in PBS (phosphate buffered saline) without Ca^++ and Mg^++, pH 7.2)). […] One hundred μL of plasma was removed from each blood sample and added to 1 mL of methanol in new 15 mL polypropylene centrifuge tubes, vortexed, and stored overnight at -20° C. […] The samples were assayed for thromboxane B2 using EIA kits supplied by Cayman Chemical Co. […] The % inhibition for COX-1 and COX-2 enzyme activity in human whole blood by the test compounds, at the indicated concentrations, are given in Table 1.

COX-1 = biological target: T2, COX-1 (Homo sapiens, UniProt P23219); assay: Human COX-1 enzyme activity in human whole blood (A23187-stimulated, thromboxane B2 EIA); assay type: cell-based; settings: 100 μM, human whole blood, A23187 stimulation; for inhibition at 100 µM: read-out: COX-1 Inhibition (% at 100 μM)
T2 construct: endogenous in cells; host or cells: heparinised human whole blood from donors, stimulated with the calcium ionophore A23187
Description: as §1

T2 sequence (P23219 24-599): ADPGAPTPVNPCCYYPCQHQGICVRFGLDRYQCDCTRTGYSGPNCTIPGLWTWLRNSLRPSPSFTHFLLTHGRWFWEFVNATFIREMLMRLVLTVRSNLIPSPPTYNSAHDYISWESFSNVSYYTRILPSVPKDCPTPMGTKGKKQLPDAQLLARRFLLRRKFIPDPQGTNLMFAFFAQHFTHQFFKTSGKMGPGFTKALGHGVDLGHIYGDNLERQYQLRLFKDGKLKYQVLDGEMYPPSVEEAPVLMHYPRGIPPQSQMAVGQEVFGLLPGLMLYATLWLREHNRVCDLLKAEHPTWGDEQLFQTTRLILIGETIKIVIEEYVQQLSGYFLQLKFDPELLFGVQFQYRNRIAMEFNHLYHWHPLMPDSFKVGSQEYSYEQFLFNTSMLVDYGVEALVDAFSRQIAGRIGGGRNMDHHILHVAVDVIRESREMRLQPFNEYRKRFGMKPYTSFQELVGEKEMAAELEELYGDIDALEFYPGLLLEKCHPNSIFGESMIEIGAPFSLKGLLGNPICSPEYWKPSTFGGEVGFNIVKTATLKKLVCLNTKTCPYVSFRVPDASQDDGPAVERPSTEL

SMILES	inhibition at 1 µM (COX-2) [%]	inhibition at 10 µM (COX-2) [%]	inhibition at 100 µM (COX-1) [%]	COX-2 Inhibition (% at 1 μM) (COX-2) [%]	COX-2 Inhibition (% at 10 μM) (COX-2) [%]	COX-1 Inhibition (% at 100 μM) (COX-1) [%]
CS(=O)(=O)c1ccc(-c2cc(C(=O)CCCO)nn2-c2ccc(Br)cc2)cc1 [Example 14d, 1-(1-(4-Bromophenyl)-5-(4-(methylsulfonyl)phenyl)pyrazol-3-yl)-4-hydroxybutan-1-one]	15	70	0	–	–	–
CS(=O)(=O)c1ccc(-c2cc(COCCO)nn2C2CCCCC2)cc1 [Example 15d, 1-(1-Cyclohexyl-3-((2-hydroxyethoxy)methyl)pyrazol-5-yl)-4-(methylsulfonyl)benzene]	0	40	10	–	–	–
CS(=O)(=O)c1ccc(-c2cc(COCCO[N+](=O)[O-])nn2C2CCCCC2)cc1 [Example 15e, 1-(1-Cyclohexyl-3-((2-(nitrooxy)ethoxy)methyl)pyrazol-5-yl)-4-(methylsulfonyl)benzene]	35	75	35	–	–	–
CS(=O)(=O)c1ccc(-c2cc(COCCCO)nn2C2CCCCC2)cc1 [Example 16b, 1-(1-Cyclohexyl-3-((3-hydroxypropoxy)methyl)pyrazol-5-yl)-4-(methylsulfonyl)benzene]	20	55	10	–	–	–
CS(=O)(=O)c1ccc(-c2cc(COCCCO[N+](=O)[O-])nn2C2CCCCC2)cc1 [Example 16c, 1-(1-Cyclohexyl-3-((3-(nitrooxy)propoxy)methyl)pyrazol-5-yl)-4-(methylsulfonyl)benzene]	45	85	10	–	–	–
CS(=O)(=O)c1ccc(-c2cc(COc3cccc(CO)c3)nn2C2CCCCC2)cc1 [Example 17b, 1-(1-Cyclohexyl-3-((3-(hydroxymethyl)phenoxy)methyl)pyrazol-5-yl)-4-(methylsulfonyl)benzene]	135	100	80	–	–	–
CS(=O)(=O)c1ccc(-c2cc(COc3cccc(CO[N+](=O)[O-])c3)nn2C2CCCCC2)cc1 [Example 17d, 1-(1-Cyclohexyl-3-((3-((nitrooxy)methyl)phenoxy)methyl)pyrazol-5-yl)-4-(methylsulfonyl)benzene]	0	25	25	–	–	–
CS(=O)(=O)c1ccc(-c2cc(COCCCO)nn2-c2ccc(F)cc2)cc1 [Example 18d, 1-(1-(4-Fluorophenyl)-3-((3-hydroxypropoxy)methyl)pyrazol-5-yl)-4-(methylsulfonyl)benzene]	45	90	40	–	–	–
CS(=O)(=O)c1ccc(-c2cc(COCCCO[N+](=O)[O-])nn2-c2ccc(F)cc2)cc1 [Example 18e, 1-(1-(4-Fluorophenyl)-3-((3-(nitrooxy)propoxy)methyl)pyrazol-5-yl)-4-(methylsulfonyl)benzene]	55	95	80	–	–	–
CC(O)CCOCc1cc(-c2ccc(S(C)(=O)=O)cc2)n(-c2ccccc2)n1 (stereo not drawn) [Example 19b, 1-(3-((3-Hydroxybutoxy)methyl)-1-phenylpyrazol-5-yl)-4-(methylsulfonyl)benzene]	20	100	40	–	–	–
CC(CCOCc1cc(-c2ccc(S(C)(=O)=O)cc2)n(-c2ccccc2)n1)O[N+](=O)[O-] (stereo not drawn) [Example 19c, 4-(Methylsulfonyl)-1-(3-((3-(nitrooxy)butoxy)methyl)-1-phenylpyrazol-5-yl)benzene]	20	30	35	–	–	–
CS(=O)(=O)c1ccc(-c2cc(/C=C/CCO)nn2C2CCCCC2)cc1 [Example 21b]	–	–	–	10	25	10
CS(=O)(=O)c1ccc(-c2cc(/C=C/CCO[N+](=O)[O-])nn2C2CCCCC2)cc1 [Example 21c, 1-(3-((1E)-4-(Nitrooxy)but-1-enyl)-1-cyclohexylpyrazol-5-yl)-4-(methylsulfonyl)benzene]	45	90	60	–	–	–
CS(=O)(=O)c1ccc(-c2cc(C(=O)CCCCCO)nn2C2CCCCC2)cc1 [Example 22c, 1-(1-Cyclohexyl-5-(4-(methylsulfonyl)phenyl)-pyrazol-3-yl)-6-hydroxyhexan-1-one]	25	80	40	–	–	–
CS(=O)(=O)c1ccc(-c2cc(C(=O)CCCCCO[N+](=O)[O-])nn2C2CCCCC2)cc1 [Example 22d]	–	–	–	30	30	75
CS(=O)(=O)c1ccc(-c2cc(C(=O)CCCO)nn2-c2ccc(C(F)(F)F)cc2)cc1 [Example 23d, 4-Hydroxy-1-(5-(4-(methylsulfonyl)phenyl)-1-(4-(trifluoromethyl)-phenyl)pyrazol-3-yl)butan-1-one]	0	10	-20	–	–	–
COc1ccc(-n2nc(C(=O)CCCO)cc2-c2ccc(S(C)(=O)=O)cc2)cc1 [Example 24d, 4-Hydroxy-1-(1-(4-methoxyphenyl)-5-(4-(methylsulfonyl)phenyl)-pyrazol-3-yl)butan-1-one]	50	85	85	–	–	–
CS(=O)(=O)c1ccc(-n2nc(/C=C\CCO)cc2-c2cccnc2)cc1 [Example 25e, 1-(3-((1Z)-4-Hydroxybut-1-enyl)-5-(3-pyridnyl)pyrazolyl)-4-(methylsulfonyl)benzene]	–	–	–	15	0	10
NS(=O)(=O)c1ccc(-c2c(-c3ccccc3)noc2COCCCO)cc1 [Example 26a]	–	–	–	50	85	25
NS(=O)(=O)c1ccc(-c2c(-c3ccccc3)noc2COCCCO[N+](=O)[O-])cc1 [Example 26b]	–	–	–	55	100	70
NS(=O)(=O)c1ccc(-c2c(-c3ccccc3)noc2COCCO)cc1 [Example 27a]	–	–	–	40	90	45
NS(=O)(=O)c1ccc(-c2c(-c3ccccc3)noc2COCCO[N+](=O)[O-])cc1 [Example 27b]	–	–	–	50	100	65
CS(=O)(=O)c1ccc(-c2cc(/C=C/CO)nn2C2CCCCC2)cc1 [Example 31c, 4-(3-((1E)-3-Hydroxyprop-1-enyl)-1-cyclohexylpyrazol-5-yl)-1(methylsulfonyl)benzene]	0	15	10	–	–	–
NS(=O)(=O)c1ccc(-c2c(-c3ccccc3)noc2COCC(F)(F)CO)cc1 [Example 32c, 4-(5-((2,2-Difluoro-3-hydroxypropoxy)methyl)-3-phenylisoxazol-4-yl)benzenesulfonamide]	15	75	-20	–	–	–
NS(=O)(=O)c1ccc(-c2c(-c3ccccc3)noc2COCC(F)(F)CO[N+](=O)[O-])cc1 [Example 32d, 4-(5-((2,2-Difuoro-3-(nitrooxy)propoxy)methyl)-3-phenylisoxazol-4-yl)benzenesulfoamide]	–	–	–	20	85	0
NS(=O)(=O)c1ccc(-c2c(-c3ccccc3)noc2COCC(F)(F)C(F)(F)CO)cc1 [Example 33a]	–	–	–	40	100	75
